According to PubChem BioAssay (NCI):
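In this assay, cells in 96-well plates receive the compound at five concentrations for 48 hours. Endpoints are linearly interpolated between the surrounding concentrations. The concentration for full growth arrest is given as TGI.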

What was measured:
Experiment in all cases: NCI-60 cell line screen, 48 h
HOP-92 NSCLC = system: HOP-92 NSCLC
HL-60(TB) leukemia = system: HL-60(TB) leukemia
OVCAR-3 ovarian = system: OVCAR-3 ovarian
786-0 renal = system: 786-0 renal
OVCAR-4 ovarian = system: OVCAR-4 ovarian
HOP-62 NSCLC = system: HOP-62 NSCLC
M14 melanoma = system: M14 melanoma
SF-295 CNS = system: SF-295 CNS
A549 NSCLC = system: A549 NSCLC
HCT-15 colon = system: HCT-15 colon
U251 CNS = system: U251 CNS
SW-620 colon = system: SW-620 colon
SK-MEL-2 melanoma = system: SK-MEL-2 melanoma
OVCAR-5 ovarian = system: OVCAR-5 ovarian
IGROV1 ovarian = system: IGROV1 ovarian
K-562 leukemia = system: K-562 leukemia
RPMI-8226 leukemia = system: RPMI-8226 leukemia
TK-10 renal = system: TK-10 renal
EKVX NSCLC = system: EKVX NSCLC
COLO 205 colon = system: COLO 205 colon
DU-145 prostate = system: DU-145 prostate
MALME-3M melanoma = system: MALME-3M melanoma
MDA-N = system: MDA-N
T-47D breast = system: T-47D breast
SR leukemia = system: SR leukemia
KM12 colon = system: KM12 colon
MDA-MB-435 = system: MDA-MB-435
BT-549 breast = system: BT-549 breast
HT29 colon = system: HT29 colon
SF-539 CNS = system: SF-539 CNS
SK-MEL-5 melanoma = system: SK-MEL-5 melanoma
NCI-H23 lung = system: NCI-H23 lung
NCI-H226 lung = system: NCI-H226 lung
PC-3 prostate = system: PC-3 prostate
NCI-H460 lung = system: NCI-H460 lung
LOX IMVI melanoma = system: LOX IMVI melanoma
A498 renal = system: A498 renal
RXF 393 renal = system: RXF 393 renal
MDA-MB-231 breast = system: MDA-MB-231 breast
OVCAR-8 ovarian = system: OVCAR-8 ovarian
SNB-19 CNS = system: SNB-19 CNS
SN12C renal = system: SN12C renal
NCI-H522 lung = system: NCI-H522 lung
HCT-116 colon = system: HCT-116 colon
UACC-62 melanoma = system: UACC-62 melanoma
SK-OV-3 ovarian = system: SK-OV-3 ovarian
UACC-257 melanoma = system: UACC-257 melanoma
CCRF-CEM leukemia = system: CCRF-CEM leukemia
UO-31 renal = system: UO-31 renal
MOLT-4 leukemia = system: MOLT-4 leukemia
NCI/ADR-RES ovarian = system: NCI/ADR-RES ovarian
SK-MEL-28 melanoma = system: SK-MEL-28 melanoma
ACHN renal = system: ACHN renal
SF-268 CNS = system: SF-268 CNS
SNB-75 CNS = system: SNB-75 CNS
CAKI-1 renal = system: CAKI-1 renal
HCC-2998 colon = system: HCC-2998 colon
MCF7 breast = system: MCF7 breast

Measured: TGI

O=C(O)c1cccc(SSc2cccc(C(=O)O)c2)c1
81 µM: CCRF-CEM leukemia
not listed: HCC-2998 colon | MCF7 breast
> 100 µM: all other assays above

COC(=O)[C@]1(c2cc3ccccc3[nH]2)CC2CN(C(=O)OCc3ccccc3)C1C=C2OC (stereo not given in full)
36.7 µM: UACC-62 melanoma
44.2 µM: OVCAR-5 ovarian
55.3 µM: MDA-MB-435
58.5 µM: MCF7 breast
55 µM: NCI-H226 lung
80.6 µM: HOP-92 NSCLC
43.7 µM: HL-60(TB) leukemia
46.8 µM: HCC-2998 colon
64.4 µM: MOLT-4 leukemia
49.9 µM: UACC-257 melanoma
57.6 µM: RXF 393 renal
66.4 µM: MALME-3M melanoma
44 µM: SK-MEL-2 melanoma
82.3 µM: BT-549 breast
98.8 µM: OVCAR-4 ovarian
91.4 µM: OVCAR-3 ovarian
69.3 µM: CCRF-CEM leukemia
56.9 µM: MDA-MB-231 breast
91.3 µM: NCI-H522 lung
72.1 µM: RPMI-8226 leukemia
74.3 µM: ACHN renal
38 µM: COLO 205 colon
55.2 µM: SF-539 CNS
63.6 µM: HT29 colon
71.2 µM: SNB-75 CNS
47 µM: M14 melanoma
not listed: SR leukemia | SK-MEL-5 melanoma | A498 renal | UO-31 renal
> 100 µM: all other assays above
